pIC50: −log10 of the molar value.
Target: T1, hTSHR (Homo sapiens, UniProt P16473)
T1 construct: expressed in transfected cells
Assay: hTSHR TR-FRET cAMP Assay (inhibition of M22-stimulated cAMP production)
Assay type: cell-based
Conditions: Expi293F Inducible cells stably expressing hTSHR; cAMP HTRF; stimulated with EC80 of anti-TSHR antibody M22; 15 min compound preincubation, 30 min at 37° C.; read-out: Activity (IC50 bins)
How it was run: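 Readout was a cAMP HTRF ratio of 655/620 nm after lysis, scaled between the EC80 M22 signal (0% inhibition) and no-agonist vehicle (100%). Frozen induced Expi293F-hTSHR cells saw test compounds (0.5% DMSO) for 15 min at 37 °C before 30 min of M22 stimulation at EC80.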

T1 sequence (P16473 21-764): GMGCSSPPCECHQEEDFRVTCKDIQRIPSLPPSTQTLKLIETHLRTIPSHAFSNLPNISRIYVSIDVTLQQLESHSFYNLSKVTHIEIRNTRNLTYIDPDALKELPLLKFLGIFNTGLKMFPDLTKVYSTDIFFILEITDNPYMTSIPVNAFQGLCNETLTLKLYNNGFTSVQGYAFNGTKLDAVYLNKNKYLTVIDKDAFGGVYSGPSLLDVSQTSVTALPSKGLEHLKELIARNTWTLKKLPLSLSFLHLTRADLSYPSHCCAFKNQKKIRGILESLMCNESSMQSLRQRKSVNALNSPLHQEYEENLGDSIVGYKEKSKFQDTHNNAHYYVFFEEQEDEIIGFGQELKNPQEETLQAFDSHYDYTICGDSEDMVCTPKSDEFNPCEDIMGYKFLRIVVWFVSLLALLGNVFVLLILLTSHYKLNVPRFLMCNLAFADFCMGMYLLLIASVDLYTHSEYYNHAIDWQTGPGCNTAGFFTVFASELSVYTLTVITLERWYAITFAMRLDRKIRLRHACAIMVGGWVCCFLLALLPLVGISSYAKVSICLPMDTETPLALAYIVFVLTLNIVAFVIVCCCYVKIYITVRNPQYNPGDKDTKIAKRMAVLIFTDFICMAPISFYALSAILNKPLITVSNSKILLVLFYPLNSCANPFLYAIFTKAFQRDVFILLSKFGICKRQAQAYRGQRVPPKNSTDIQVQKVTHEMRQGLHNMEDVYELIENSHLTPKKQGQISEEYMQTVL

| pIC50 | SMILES |
| --- | --- |
| 6.00 to 7.00 | C[C@@H](c1cc(Cl)c(F)cc1F)n1c(=O)cnc2cc(NC(=O)NC(C)(C)C)ccc21 [Example 149, (S)-1-(tert-butyl)-3-(1-(1-(5-chloro-2,4-difluorophenyl)ethyl)-2-oxo-1,2-dihydroquinoxalin-6-yl)urea] |
| 6.00 to 7.00 | C[C@@H](c1cccc(CC(F)(F)F)n1)n1c(=O)cnc2cc(NC(=O)NC(C)(C)C)ccc21 [Example 150, (S)-1-(tert-butyl)-3-(2-oxo-1-(1-(6-(2,2,2-trifluoroethyl)pyridin-2-yl)ethyl)-1,2-dihydroquinoxalin-6-yl)urea] |
| 6.00 to 7.00 | C[C@@H](c1cc(OC(F)(F)F)c(F)cc1F)n1c(=O)cnc2cc(NC(=O)NC(C)(C)C)ccc21 [Example 151, (S)-1-(tert-butyl)-3-(1-(1-(2,4-difluoro-5-(trifluoromethoxy)phe-nyl)ethyl)-2-oxo-1,2-dihydroquinoxalin-6-yl)urea] |
| < 6.00 | C[C@@H](c1ccc2c(c1)OCCC2)n1c(=O)cnc2cc(NC(=O)NC(C)(C)C)ccc21 [Example 152, (S)-1-(tert-butyl)-3-(1-(1-(chroman-7-yl)ethyl)-2-oxo-1,2-dihydroquinoxalin-6-yl)urea] |
| 6.00 to 7.00 | C[C@@H](c1cccc([C@@H](O)C(F)(F)F)n1)n1c(=O)cnc2cc(NC(=O)NC(C)(C)C)ccc21 [Example 153] |
| 6.00 to 7.00 | C[C@@H](c1cccc([C@@H](O)C(F)(F)F)c1)n1c(=O)cnc2cc(NC(=O)NC(C)(C)C)ccc21 [Example 155, 1-(tert-butyl)-3-(2-oxo-1-((S)-1-(3-((S)-2,2,2-trifluoro-1-hydroxyethyl)phe-nyl)ethyl)-1,2-dihydroquinoxalin-6-yl)urea] |
| 6.00 to 7.00 | C[C@@H](c1cccc([C@H](O)C(F)(F)F)c1)n1c(=O)cnc2cc(NC(=O)NC(C)(C)C)ccc21 [Example 156, 1-(tert-butyl)-3-(2-oxo-1-((S)-1-(3-((R)-2,2,2-trifluoro-1-hydroxyethyl)phe-nyl)ethyl)-1,2-dihydroquinoxalin-6-yl)urea] |
| > 7.00 | Cc1cccc(CN2C(=O)[C@@H](C)Oc3cc(NC(=O)NC(C)(C)C)ccc32)c1 [Example 157, 3-tert-butyl-1-[(2R)-2-methyl-4-[(3-methylphenyl)methyl]-3-oxo-2H-1,4-benzoxazin-7-yl]urea] |
| > 7.00 | C[C@H]1Oc2cc(NC(=O)NC(C)(C)C)ccc2N(Cc2cccc(C(F)F)c2)C1=O [Example 158, (R)-1-(tert-butyl)-3-(4-(3-(difluoro-methyl)benzyl)-2-methyl-3-oxo-3,4-dihydro-2H-benzo [b][1,4]oxazin-7-yl)urea] |
| > 7.00 | C[C@H]1Oc2cc(NC(=O)NC(C)(C)C)ccc2N(Cc2cccc(OC(F)(F)F)c2)C1=O [Example 159, (R)-1-(tert-butyl)-3-(2-methyl-3-oxo-4-(3-(trifluoro-methoxy)benzyl)-3,4-dihydro-2H-benzo [b][1,4]oxazin-7-yl)urea] |
| > 7.00 | C[C@H]1Oc2cc(NC(=O)NC(C)(C)C)ccc2N(Cc2cccc(OC(F)F)c2)C1=O [Example 160, (R)-1-(tert-butyl)-3-(4-(3-(difluoro-methoxy)benzyl)-2-methyl-3-oxo-3,4-dihydro-2H-benzo [b][1,4]oxazin-7-yl)urea] |
| > 7.00 | C[C@H]1Oc2cc(NC(=O)NC(C)(C)C)ccc2N(Cc2cccc(C(F)(F)F)n2)C1=O [Example 161, (R)-1-(tert-butyl)-3-(2-methyl-3-oxo-4-((6-(trifluoro-methyl)pyridin-2-yl)methyl)-3,4-dihydro-2H-benzo [b][1,4]oxazin-7-yl)urea] |

Continued, compound first:

| SMILES | pIC50 |
| --- | --- |
| C[C@@H](c1cccc(N2CCCCC2)c1)n1c(=O)cnc2cc(NC(=O)NC(C)(C)C)ccc21 [Example 127, (S)-1-(tert-butyl)-3-(2-oxo-1-(1-(3-(piperidin-1-yl)phenyl)ethyl)-1,2-dihydroquinoxalin-6-yl)urea] | 6.00 to 7.00 |
| C[C@@H](c1cccc(OC(F)F)c1)n1c(=O)cnc2cc(NC(=O)NC(C)(C)C)ccc21 [Example 128, (S)-1-(tert-butyl)-3-(1-(1-(3-(difluoromethoxy)phe-nyl)ethyl)-2-oxo-1,2-dihydroquinoxalin-6-yl)urea] | 6.00 to 7.00 |
| C[C@@H](c1cc(OC(F)(F)F)ccn1)n1c(=O)cnc2cc(NC(=O)NC(C)(C)C)ccc21 [Example 129, (S)-1-(tert-butyl)-3-(2-oxo-1-(1-(4-(trifluoromethoxy)pyri-din-2-yl)ethyl)-1,2-dihydroquinoxalin-6-yl)urea] | < 6.00 |
| C[C@@H](c1cc(Cl)ccc1Cl)n1c(=O)cnc2cc(NC(=O)NC(C)(C)C)ccc21 [Example 130, (S)-1-(tert-butyl)-3-(1-(1-(2,5-dichlorophenyl)ethyl)-2-oxo-1,2-dihydroquinoxalin-6-yl)urea] | 6.00 to 7.00 |
| C[C@@H](c1cccc(Cl)c1)n1c(=O)cnc2cc(NC(=O)NC(C)(C)C)ccc21 [Example 131, (S)-1-(tert-butyl)-3-(1-(1-(3-chlorophenyl)ethyl)-2-oxo-1,2-dihydroquinoxalin-6-yl)urea] | > 7.00 |
| Cc1cccc([C@H](C)n2c(=O)cnc3cc(NC(=O)NC(C)(C)C)ccc32)c1 [Example 132, (S)-1-(tert-butyl)-3-(2-oxo-1-(1-(m-tolyl)ethyl)-1,2-dihydroquinoxalin-6-yl)urea] | 6.00 to 7.00 |
| C[C@@H](c1ccc(Cl)c(Cl)c1)n1c(=O)cnc2cc(NC(=O)NC(C)(C)C)ccc21 [Example 133, (S)-1-(tert-butyl)-3-(1-(1-(3,4-dichlorophenyl)ethyl)-2-oxo-1,2-dihydroquinoxalin-6-yl)urea] | 6.00 to 7.00 |
| C[C@@H](c1cccc(C2CC2)c1)n1c(=O)cnc2cc(NC(=O)NC(C)(C)C)ccc21 [Example 134, (S)-1-(tert-butyl)-3-(1-(1-(3-cyclopropylphenyl)eth-yl)-2-oxo-1,2-dihydroquinoxalin-6-yl)urea] | 6.00 to 7.00 |
| C[C@@H](c1cccc(C2CCC2)c1)n1c(=O)cnc2cc(NC(=O)NC(C)(C)C)ccc21 [Example 135, (S)-1-(tert-butyl)-3-(1-(1-(3-cyclo-butylphenyl)ethyl)-2-oxo-1,2-dihydroquinoxalin-6-yl)urea] | 6.00 to 7.00 |
| CC(C)c1cccc([C@H](C)n2c(=O)cnc3cc(NC(=O)NC(C)(C)C)ccc32)c1 [Example 136, (S)-1-(tert-butyl)-3-(1-(1-(3-iso-propylphenyl)ethyl)-2-oxo-1,2-dihydroquinoxalin-6-yl)urea] | 6.00 to 7.00 |
| CC(C)Oc1cccc([C@H](C)n2c(=O)cnc3cc(NC(=O)NC(C)(C)C)ccc32)c1 [Example 137, (S)-1-(tert-butyl)-3-(1-(1-(3-isopropoxyphenyl)eth-yl)-2-oxo-1,2-dihydroquinoxalin-6-yl)urea] | 6.00 to 7.00 |
| C[C@@H](c1cccc(C(C)(C)C)c1)n1c(=O)cnc2cc(NC(=O)NC(C)(C)C)ccc21 [Example 138, (S)-1-(tert-butyl)-3-(1-(1-(3-(tert-butyl)phenyl)ethyl)-2-oxo-1,2-dihydroquinoxalin-6-yl)urea] | 6.00 to 7.00 |
| C[C@@H](c1cc(Cl)ccc1F)n1c(=O)cnc2cc(NC(=O)NC(C)(C)C)ccc21 [Example 139, (S)-1-(tert-butyl)-3-(1-(1-(5-chloro-2-fluorophenyl)ethyl)-2-oxo-1,2-dihydroquinoxalin-6-yl)urea] | 6.00 to 7.00 |
| C[C@@H](c1c(F)cccc1F)n1c(=O)cnc2cc(NC(=O)NC(C)(C)C)ccc21 [Example 140, (S)-1-(tert-butyl)-3-(1-(1-(2,6-difluorophenyl)ethyl)-2-oxo-1,2-dihydroquinoxalin-6-yl)urea] | 6.00 to 7.00 |
| Cc1ccc(Cl)cc1[C@H](C)n1c(=O)cnc2cc(NC(=O)NC(C)(C)C)ccc21 [Example 141, (S)-1-(tert-butyl)-3-(1-(1-(5-chloro-2-methylphenyl)ethyl)-2-oxo-1,2-dihydroquinoxalin-6-yl)urea] | 6.00 to 7.00 |
| C[C@@H](c1cccc(Cl)c1Cl)n1c(=O)cnc2cc(NC(=O)NC(C)(C)C)ccc21 [Example 142, (S)-1-(tert-butyl)-3-(1-(1-(2,3-dichlorophenyl)ethyl)-2-oxo-1,2-dihydroquinoxalin-6-yl)urea] | 6.00 to 7.00 |
| C[C@@H](c1cccc(C2CC2)n1)n1c(=O)cnc2cc(NC(=O)NC(C)(C)C)ccc21 [Example 143, (S)-1-(tert-butyl)-3-(1-(1-(6-cyclopropylpyridin-2-yl)ethyl)-2-oxo-1,2-dihydroquinoxalin-6-yl)urea] | 6.00 to 7.00 |
| COc1cccc([C@H](C)n2c(=O)cnc3cc(NC(=O)NC(C)(C)C)ccc32)n1 [Example 144, (S)-1-(tert-butyl)-3-(1-(1-(6-methoxypyridin-2-yl)ethyl)-2-oxo-1,2-dihydroquinoxalin-6-yl)urea] | 6.00 to 7.00 |
| C[C@@H](c1cccc(N(C)C)n1)n1c(=O)cnc2cc(NC(=O)NC(C)(C)C)ccc21 [Example 145, (S)-1-(tert-butyl)-3-(1-(1-(6-(dimethyl-amino)pyridin-2-yl)ethyl)-2-oxo-1,2-dihydroquinoxalin-6-yl)urea] | 6.00 to 7.00 |
| CC(O)c1cccc([C@H](C)n2c(=O)cnc3cc(NC(=O)NC(C)(C)C)ccc32)c1 (stereo partly drawn) [Example 146, 1-(tert-butyl)-3-(1-((1S)-1-(3-(1-hydroxy-ethyl)phenyl)eth-yl)-2-oxo-1,2-dihydroquinoxalin-6-yl)urea] | < 6.00 |
| C[C@@H](c1cc(F)ccc1Cl)n1c(=O)cnc2cc(NC(=O)NC(C)(C)C)ccc21 [Example 147, (S)-1-(tert-butyl)-3-(1-(1-(2-chloro-5-fluorophenyl)ethyl)-2-oxo-1,2-dihydroquinoxalin-6-yl)urea] | 6.00 to 7.00 |
| C[C@@H](c1cc(F)ccc1F)n1c(=O)cnc2cc(NC(=O)NC(C)(C)C)ccc21 [Example 148, (S)-1-(tert-butyl)-3-(1-(1-(2,5-difluorophenyl)ethyl)-2-oxo-1,2-dihydroquinoxalin-6-yl)urea] | 6.00 to 7.00 |
